Test results published in patent US20230407243A1, “GENETIC PLATFORM TO INVESTIGATE THE FUNCTIONS OF BACTERIAL DRUG EFFLUX PUMPS” (priority 2022, published 2023).
Like-named read-outs stand apart in the source and are kept apart here.

Assays:
Type in all cases: cell-based, Escherichia coli
EKO-35 araC::macAB Pore = test: MIC susceptibility profiling, porinated efflux platform; conditions: Escherichia coli; EKO-35 araC::macAB Pore; technical duplicate; read-out: Minimum inhibitory concentration
Description: (§1) For genomic integration of the pore, the fhuA ΔC/Δ4L gene and the adjacent gentamicin resistance cassette were amplified using a high-fidelity polymerase and the fhuA_40_Up/gImS_3680_Low primers (Table 4). Integration of the pore gene was performed as described above. The pore gene was introduced into the intergenic region between the glmS and pstS genes, with gene expression under the control of a constitutive promoter (Kearse, M. et al., 2012). Genomic integrations were verified using PCR (Primers: pstS_520_Up/glmS_3680_Low, Table 4). Successful integrations were transformed with pCP20 to remove the gentamicin resistance cassette as previously described. Activity of the pore was confirmed through susceptibility testing with the large antibiotic vancomycin prior to phenotypic profiling and further susceptibility testing.
(§2) Single colonies were used to inoculate 3 mL of LB followed by incubation at 37° C. for 18 h with aeration at 220 rpm. The bacterial cells were harvested by centrifugation and resuspended in phosphate buffered saline (PBS) ([pH 7.4], 137 mM NaCl (Bioshop), 2.7 mM KCl (Bioshop), 10 mM Na2PO4 (Bioshop) and 1.8 mM K2PO4) to an OD600 nm˜1.0, followed by 1/2000 dilution into MHB II.
(§3) To a 384-well microtiter plate (Corning, untreated polystyrene), 500 nL of compound was dispensed, in duplicate, and serially titrated 2-fold using an Echo 550 acoustic liquid dispenser (Labcyte Inc.). […] As a solvent control, 500 nL of DMSO was applied to wells that contained no compound. Using a multichannel pipette, 50 μL of the prepared bacterial inoculum was applied to each well. To enable background correction post-incubation, the OD600 nm was measured (Biotek Synergy Neo2 microplate reader) prior to incubation. The plates were incubated at 37° C. with aeration at 900 rpm for 18 h. The plates were equilibrated to room temperature and the OD600 nm measured using a BioTek Synergy Neo2 microplate reader. Data was analyzed in both Prism (GraphPad, Version 9.2.0) and Microsoft Excel (Version 16.53). Raw data were input into Microsoft Excel and the pre-incubation OD600 nm measurements were subtracted from the post-incubation OD600 nm measurements. These corrected measurements were input into Prism 9 as a grouped analysis. […] All other MIC values were adjusted accordingly and visualized using the single-color scale grouped heat map function. Identification of compound chemical properties was achieved using DataWarrior (Version 5.5.0). Using PubChem, the SMILES chemical notation for each compound was obtained and compiled in Microsoft Excel. The resulting spreadsheet was input into DataWarrior and properties were calculated from the compound chemical structures.

EKO-35 araC::mdtBC Pore = test: as above; conditions: Escherichia coli; EKO-35 araC::mdtBC Pore; technical duplicate; read-out: Minimum inhibitory concentration
Description: as §1, §2, §3

EKO-35 araC::emrKY Pore = test: as above; conditions: Escherichia coli; EKO-35 araC::emrKY Pore; technical duplicate; read-out: Minimum inhibitory concentration
Description: as §1, §2, §3

EKO-35 araC::acrB Pore = test: as above; conditions: Escherichia coli; Table 14A; porinated; technical duplicate; read-out: Minimum inhibitory concentration, EKO-35 araC::acrB Pore
Description: as §1, §2, §3

EKO-35 araC::mdtEF Pore = test: as above; conditions: Escherichia coli; Table 14A; porinated; technical duplicate; read-out: Minimum inhibitory concentration, EKO-35 araC::mdtEF Pore
Description: as §1, §2, §3

[1] = system: EKO-35 araC::acrBD408A Pore; test: as above; conditions: Escherichia coli; EKO-35 araC::acrBD408A Pore; technical duplicate; read-out: Minimum inhibitory concentration
Description: as §1, §2, §3

EKO-35 araC::acrD Pore = test: as above; conditions: Escherichia coli; Table 14A; porinated; technical duplicate; read-out: Minimum inhibitory concentration, EKO-35 araC::acrD Pore
Description: as §1, §2, §3

EKO-35 araC::acrEF Pore = test: as above; conditions: Escherichia coli; Table 14A; porinated; technical duplicate; read-out: Minimum inhibitory concentration, EKO-35 araC::acrEF Pore
Description: as §1, §2, §3

EKO-35-Pore = test: MIC susceptibility profiling, porinated strain; conditions: Escherichia coli, technical duplicate
Description: as §1, §2, §3

wild-type (WT) K-12-Pore = test: microbe, parasite or virus in culture; conditions: Escherichia coli, technical duplicate
Description: as §1, §2, §3

ΔtolC-Pore = test: microbe, parasite or virus in culture
Description: as §1, §2, §3

EKO-35 araC::acrB = test: MIC susceptibility profiling, efflux platform; conditions: Escherichia coli; Table 13A; non-porinated; technical duplicate; read-out: Minimum Inhibitory Concentration, EKO-35 araC::acrB
Description: as §2, §3

EKO-35 araC::acrEF = test: MIC susceptibility profiling, efflux platform; conditions: Escherichia coli; Table 13A; non-porinated; technical duplicate; read-out: Minimum Inhibitory Concentration, EKO-35 araC::acrEF
Description: as §2, §3

[2] = system: EKO-35 araC::mexCD (MexCD from P. aeruginosa); test: MIC susceptibility profiling, efflux platform; conditions: Table 13B; non-porinated; technical duplicate; read-out: Minimum Inhibitory Concentration, EKO-35 araC::mexCD
Description: as §2, §3

[3] = system: wild-type E. coli K-12 str. BW25113; test: microbe, parasite or virus in culture; conditions: Escherichia coli, BW25113, technical duplicate
Description: as §2, §3

E. coli EKO-35 = test: microbe, parasite or virus in culture; conditions: Escherichia coli, EKO35, technical duplicate
Description: as §2, §3

E. coli ΔtolC = test: microbe, parasite or virus in culture
Description: as §2, §3

In the case of `O=C(O)c1cn(C2CC2)c2cc(N3CCNCC3)c(F)cc2c1=O` [ciprofloxacin], the MIC (EKO-35 araC::macAB Pore) is reported as 2 ng/mL, the MIC (EKO-35 araC::mdtBC Pore) is reported as 2 ng/mL and the MIC (EKO-35 araC::emrKY Pore) is reported as 2 ng/mL. It also gave an MIC (EKO-35 araC::acrB Pore) of 9 ng/mL, an MIC (EKO-35 araC::mdtEF Pore) of 2 ng/mL and an MIC [1] of 2 ng/mL. For the same compound, the MIC (EKO-35 araC::acrD Pore) was 2 ng/mL, the MIC (EKO-35 araC::acrEF Pore) was 0.01 µg/mL and the MIC (EKO-35-Pore; Table 10, with pore, read-out: Minimum inhibitory concentration (MIC), Pore EKO-35) was 2 ng/mL. For the same compound, the MIC (EKO-35-Pore; Table 14A, porinated, read-out: Minimum inhibitory concentration, EKO-35-Pore) was 2 ng/mL, the MIC (wild-type (WT) K-12-Pore; Table 10, with pore, read-out: Minimum inhibitory concentration (MIC), Pore K-12) was 5 ng/mL and the MIC (wild-type (WT) K-12-Pore; Table 14A, porinated, read-out: Minimum inhibitory concentration, K-12 (WT)-Pore) was 5 ng/mL. For the same compound, the MIC (ΔtolC-Pore; Escherichia coli, 18 h, read-out: Minimum inhibitory concentration, ΔtolC-Pore) was 2 ng/mL, the “Minimum inhibitory concentration (MIC), Pore ΔtolC” value (ΔtolC-Pore; Table 10, with pore, technical duplicate) was 2 ng/mL and the MIC (EKO-35 araC::acrB) was 0.02 µg/mL. It also gave an MIC (EKO-35 araC::acrEF) of 0.02 µg/mL, an MIC [2] of 0.01 µg/mL and an MIC ([3]; Table 10, without pore, read-out: Minimum inhibitory concentration (MIC), K-12) of 0.01 µg/mL. For the same compound, the MIC ([3]; Table 13A, non-porinated, read-out: Minimum Inhibitory Concentration, K-12) was 0.01 µg/mL, the MIC (E. coli EKO-35; Table 10, without pore, read-out: Minimum inhibitory concentration (MIC), EKO-35) was 5 ng/mL and the MIC (E. coli EKO-35; Table 13A, non-porinated, read-out: Minimum Inhibitory Concentration, EKO-35) was 5 ng/mL. The MIC (E. coli ΔtolC; Escherichia coli, 18 h, read-out: Minimum Inhibitory Concentration, ΔtolC) was 5 ng/mL and the “Minimum inhibitory concentration (MIC), ΔtolC” value (E. coli ΔtolC; Table 10, without pore, technical duplicate) was 5 ng/mL.
